Data from patent US9617256B2 (priority 2007, dated 2017).
In brackets after ≈: the same amount, converted by molar mass.

How the values were obtained:
AECO001 (ATCC25922) = assay: MIC broth microdilution, AECO001; assay type: cell-based, E. coli; details: for MIC: Escherichia coli, ATCC25922, read-out: MIC AECO001
In short: (§1)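 CLSI-guided microdilution: bacteria passaged overnight at 35° C. on Mueller-Hinton agar, tested in cation-adjusted broth at a final 3×10^5–7×10^5 CFU/mL across 2-fold drug dilutions, read after 18-24 h at 35° C.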

[1] = tested on: APAE006 (strain of P. aeruginosa in which all efflux pumps are inactivated); assay: microbe, parasite or virus in culture; assay type: cell-based; details: for MIC: Pseudomonas aeruginosa, read-out: MIC APAE006, P. aeruginosa, all efflux pumps inactivated
In short: (§2)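 MICs come from broth microdilution in cation-adjusted Mueller-Hinton broth, final inoculum 3×10^5–7×10^5 CFU/mL, 18-24 hours at 35° C. Levofloxacin and QC strains served as assay controls.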

[2] = tested on: AECO063 (ATCC25922 bearing an acrAB mutation); assay: microbe, parasite or virus in culture; assay type: cell-based, E. coli; details: for MIC: Escherichia coli, ATCC25922, read-out: MIC AECO063
In short: as §1

APAE001 (ATCC27853) = assay: MIC broth microdilution, APAE001; assay type: cell-based, P. aeruginosa; details: for MIC: Pseudomonas aeruginosa, ATCC27853, read-out: MIC APAE001, APAE001 is ATCC27853
In short: as §1

[3] = tested on: APAE006 in the presence of 8 micrograms per milliliter of polymyxin B nonapeptide; assay type: cell-based, P. aeruginosa; details: in the presence of 8 micrograms per milliliter of polymyxin B nonapeptide
In short: as §2

[4] = tested on: AABA1060 (clinical isolate of Acinetobacter baumannii); assay: MIC broth microdilution, AABA1060; assay type: cell-based; details: for MIC: Acinetobacter baumannii, read-out: MIC AABA1060
In short: as §1

AECO001 HSA AGP = assay: MIC broth microdilution, AECO001 HSA AGP; assay type: cell-based, E. coli; details: for MIC: Escherichia coli
In short: as §1

[5] = tested on: ASAU001 (laboratory strain of S. aureus, ATCC29213); assay: MIC broth microdilution, ASAU001; assay type: cell-based; details: for MIC: Staphylococcus aureus, ATCC29213, read-out: MIC ASAU001
In short: as §1

Compound: NC[C@H](NC(=O)c1ccc(/C=C/C#Cc2ccc(CO)cc2)cc1)C(=O)NO [Example 112-2]
- MIC (AECO001 (ATCC25922)): 2 to 16 µg/mL (≈ 5.27 to 42.2 µM)
- MIC [1]: < 2 µg/mL
- MIC [2]: < 2 µg/mL
- MIC (APAE001 (ATCC27853)): 2 to 16 µg/mL (≈ 5.27 to 42.2 µM)
- MIC APAE006 + PMBN [3]: A (MIC's of 2.0 μg/mL or less = A)
- MIC [4]: > 64 µg/mL
- MIC (AECO001 HSA AGP): 16 to 64 µg/mL (≈ 42.2 to 169 µM)
- MIC [5]: > 64 µg/mL

Compound: C[C@@H](O)[C@H](NC(=O)c1ccc(/C=C/C#Cc2ccc(CO)cc2)cc1)C(=O)NO [Example 112-3]
- MIC (AECO001 (ATCC25922)): < 2 µg/mL
- MIC [1]: < 2 µg/mL
- MIC [2]: < 2 µg/mL
- MIC (APAE001 (ATCC27853)): 2 to 16 µg/mL (≈ 5.07 to 40.6 µM)
- MIC APAE006 + PMBN [3]: A (MIC's of 2.0 μg/mL or less = A)
- MIC [4]: 16 to 64 µg/mL (≈ 40.6 to 162 µM)
- MIC (AECO001 HSA AGP): 16 to 64 µg/mL (≈ 40.6 to 162 µM)
- MIC [5]: 16 to 64 µg/mL (≈ 40.6 to 162 µM)

Compound: CO[C@H](C)[C@H](NC(=O)c1ccc(/C=C/C#Cc2ccc(CO)cc2)cc1)C(=O)NO [Example 112-4]
- MIC (AECO001 (ATCC25922)): < 2 µg/mL
- MIC [1]: < 2 µg/mL
- MIC [2]: < 2 µg/mL
- MIC (APAE001 (ATCC27853)): < 2 µg/mL
- MIC APAE006 + PMBN [3]: A (MIC's of 2.0 μg/mL or less = A)
- MIC [4]: < 2 µg/mL
- MIC (AECO001 HSA AGP): 2 to 16 µg/mL (≈ 4.9 to 39.2 µM)
- MIC [5]: 16 to 64 µg/mL (≈ 39.2 to 157 µM)

Compound: CC(C)(O)[C@H](NC(=O)c1ccc(/C=C/C#Cc2ccc(CO)cc2)cc1)C(=O)NO [Example 112-5]
- MIC (AECO001 (ATCC25922)): < 2 µg/mL
- MIC [1]: < 2 µg/mL
- MIC [2]: < 2 µg/mL
- MIC (APAE001 (ATCC27853)): < 2 µg/mL
- MIC APAE006 + PMBN [3]: A (MIC's of 2.0 μg/mL or less = A)
- MIC [4]: < 2 µg/mL
- MIC (AECO001 HSA AGP): 2 to 16 µg/mL (≈ 4.9 to 39.2 µM)
- MIC [5]: 16 to 64 µg/mL (≈ 39.2 to 157 µM)

Compound: NC[C@H](NC(=O)c1ccc(/C=C/C#Cc2ccc(CNC3CC3)cc2)cc1)C(=O)NO [Example 113-1]
- MIC (AECO001 (ATCC25922)): < 2 µg/mL
- MIC [1]: < 2 µg/mL
- MIC [2]: < 2 µg/mL
- MIC (APAE001 (ATCC27853)): 2 to 16 µg/mL (≈ 4.78 to 38.2 µM)
- MIC APAE006 + PMBN [3]: A (MIC's of 2.0 μg/mL or less = A)
- MIC [4]: 16 to 64 µg/mL (≈ 38.2 to 153 µM)
- MIC (AECO001 HSA AGP): 2 to 16 µg/mL (≈ 4.78 to 38.2 µM)
- MIC [5]: > 64 µg/mL

Compound: C[C@@H](N)[C@H](NC(=O)c1ccc(/C=C/C#Cc2ccc(CNC3CC3)cc2)cc1)C(=O)NO [Example 113-2]
- MIC (AECO001 (ATCC25922)): < 2 µg/mL
- MIC [1]: < 2 µg/mL
- MIC [2]: < 2 µg/mL
- MIC (APAE001 (ATCC27853)): < 2 µg/mL
- MIC APAE006 + PMBN [3]: A (MIC's of 2.0 μg/mL or less = A)
- MIC [4]: 2 to 16 µg/mL (≈ 4.62 to 37 µM)
- MIC (AECO001 HSA AGP): 2 to 16 µg/mL (≈ 4.62 to 37 µM)
- MIC [5]: > 64 µg/mL

Compound: C[C@@H](O)[C@H](NC(=O)c1ccc(/C=C/C#Cc2ccc(CNC3CC3)cc2)cc1)C(=O)NO [Example 113-3]
- MIC (AECO001 (ATCC25922)): < 2 µg/mL
- MIC [1]: < 2 µg/mL
- MIC [2]: < 2 µg/mL
- MIC (APAE001 (ATCC27853)): 2 to 16 µg/mL (≈ 4.61 to 36.9 µM)
- MIC APAE006 + PMBN [3]: A (MIC's of 2.0 μg/mL or less = A)
- MIC [4]: 2 to 16 µg/mL (≈ 4.61 to 36.9 µM)
- MIC (AECO001 HSA AGP): 2 to 16 µg/mL (≈ 4.61 to 36.9 µM)
- MIC [5]: > 64 µg/mL

Compound: C[C@H](O)[C@H](NC(=O)c1ccc(/C=C/C#Cc2ccc(CNC3CC3)cc2)cc1)C(=O)NO [Example 113-4]
- MIC (AECO001 (ATCC25922)): < 2 µg/mL
- MIC [1]: < 2 µg/mL
- MIC [2]: < 2 µg/mL
- MIC (APAE001 (ATCC27853)): 2 to 16 µg/mL (≈ 4.61 to 36.9 µM)
- MIC APAE006 + PMBN [3]: A (MIC's of 2.0 μg/mL or less = A)
- MIC [4]: 2 to 16 µg/mL (≈ 4.61 to 36.9 µM)
- MIC (AECO001 HSA AGP): 2 to 16 µg/mL (≈ 4.61 to 36.9 µM)
- MIC [5]: > 64 µg/mL

Compound: CC(C)(O)[C@H](NC(=O)c1ccc(/C=C/C#Cc2ccc(CNC3CC3)cc2)cc1)C(=O)NO [Example 113-5]
- MIC (AECO001 (ATCC25922)): < 2 µg/mL
- MIC [1]: < 2 µg/mL
- MIC [2]: < 2 µg/mL
- MIC (APAE001 (ATCC27853)): < 2 µg/mL
- MIC APAE006 + PMBN [3]: A (MIC's of 2.0 μg/mL or less = A)
- MIC [4]: < 2 µg/mL
- MIC (AECO001 HSA AGP): < 2 µg/mL
- MIC [5]: 16 to 64 µg/mL (≈ 35.8 to 143 µM)

Compound: CO[C@H](C)[C@H](NC(=O)c1ccc(/C=C/C#Cc2ccc(CNC3CC3)cc2)cc1)C(=O)NO [Example 113-7]
- MIC (AECO001 (ATCC25922)): < 2 µg/mL
- MIC [1]: < 2 µg/mL
- MIC [2]: < 2 µg/mL
- MIC (APAE001 (ATCC27853)): 2 to 16 µg/mL (≈ 4.47 to 35.8 µM)
- MIC APAE006 + PMBN [3]: A (MIC's of 2.0 μg/mL or less = A)
- MIC [4]: 2 to 16 µg/mL (≈ 4.47 to 35.8 µM)
- MIC (AECO001 HSA AGP): 2 to 16 µg/mL (≈ 4.47 to 35.8 µM)
- MIC [5]: > 64 µg/mL

Compound: C[C@@H](N)[C@H](NC(=O)c1ccc(/C=C/C#Cc2ccc(CN3CCS(=O)(=O)CC3)cc2)cc1)C(=O)NO [Example 113-8]
- MIC AECO001 (AECO001 (ATCC25922); AECO001 is ATCC25922): A (MIC's of 2.0 μg/mL or less = A)
- MIC APAE006 ([1]; P. aeruginosa, all efflux pumps inactivated): A (MIC's of 2.0 μg/mL or less = A)
- MIC AECO063 ([2]; ATCC25922 bearing an acrAB mutation): A (MIC's of 2.0 μg/mL or less = A)
- MIC APAE001 (APAE001 (ATCC27853); APAE001 is ATCC27853): B (MIC's of greater than 2.0 μg/mL to 16.0 μg/mL = B)
- MIC APAE006 + PMBN [3]: A (MIC's of 2.0 μg/mL or less = A)
- MIC AABA1060 ([4]; clinical isolate of Acinetobacter baumannii): A (MIC's of 2.0 μg/mL or less = A)
- MIC AECO001 HSA AGP (AECO001 HSA AGP): B (MIC's of greater than 2.0 μg/mL to 16.0 μg/mL = B)
- MIC ASAU001 ([5]; S. aureus ATCC29213): C (MIC's of greater than 16.0 μg/mL to 64.0 μg/mL = C)

Compound: COCc1ccc(C#C/C=C/c2ccc(C(=O)N[C@H](C(=O)NO)[C@@H](C)N)cc2)cc1 [Example 113-9]
- MIC (AECO001 (ATCC25922)): < 2 µg/mL
- MIC [1]: < 2 µg/mL
- MIC [2]: < 2 µg/mL
- MIC (APAE001 (ATCC27853)): < 2 µg/mL
- MIC APAE006 + PMBN [3]: A (MIC's of 2.0 μg/mL or less = A)
- MIC [4]: < 2 µg/mL
- MIC (AECO001 HSA AGP): 2 to 16 µg/mL (≈ 4.91 to 39.3 µM)
- MIC [5]: 16 to 64 µg/mL (≈ 39.3 to 157 µM)
